Data: patent US20260137703A1, “2-AMINO-PYRIDO[2,3-D]PYRIMIDIN-7(8H)-ONE AND 7-AMINO-1-PYRIMIDO[4,5-D]PYRIMIDIN-2(1 H)-ONE DERIVATIVES AS EGFR INHIBITORS FOR THE TREATMENT OF CANCER” (Cancer Research Technology Limited, priority 2022, published 2026)
One block for each compound: values may come before it.

Key:
[1] = molecular target: T1, Phospho-EGFR (Tyr1068) in H1975 cells (Homo sapiens, UniProt P00533, L858R/T790M); test: HTRF pEGFR/total EGFR in H1975 cells; format: cell-based; conditions: ratio pEGFR/total EGFR, compound 3 hours
T1 construct: host or cells: H1975
Method in brief: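 H1975 cells (EGFR L858R/T790M) treated 3 h with compound in 0.1% DMSO, in duplicate, 24 h after plating. Lysates assayed by HTRF for pEGFR (Tyr1068) and total EGFR at 665/620 nm; values are pEGFR/total EGFR ratio as percent of 0 μM control.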

[2] = molecular target: T2, Phospho-EGFR (Tyr1068) in H1975 C797S cells (CRISPR-edited EGFR C797S) (Homo sapiens, UniProt P00533, C797S/L858R/T790M); test: HTRF pEGFR/total EGFR in H1975 C797S cells; format: cell-based; conditions: ratio pEGFR/total EGFR, compound 3 hours
T2 construct: host or cells: H1975 C797S (CRISPR-edited)
Method in brief: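 Adhered H1975 C797S cells got compound for 3 h in duplicate at 0.1% DMSO final, then were lysed 30 min at room temperature. HTRF kits quantified phospho-EGFR (Tyr1068) and total EGFR (665/620 nm); results are pEGFR/total EGFR ratio as percent of 0 μM control.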

[3] = molecular target: T3, Phospho-EGFR (Tyr1068) in A431 cells (Homo sapiens, UniProt P00533); test: HTRF pEGFR/total EGFR in A431 cells with EGF stimulation; format: cell-based; conditions: ratio pEGFR/total EGFR, compound 2.5 hours then 100 ng/ml EGF 30 mins
T3 construct: endogenous in cells; host or cells: A431
Method in brief: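 A431 cells were plated at 20,000 per well, allowed 24 h to adhere, then given compound for 2.5 h (0.1% DMSO final). They were then stimulated with 100 ng/ml EGF for 30 min and lysed. HTRF measured Tyr1068-phospho and total EGFR at 665/620 nm, with pEGFR/total EGFR expressed as % of the 0 μM control.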

[4] = molecular target: CtermHisTag-mEGFR Wild type (Homo sapiens, UniProt P00533); test: biochemical
Chain of CtermHisTag-mEGFR Wild type (P00533 whole entry): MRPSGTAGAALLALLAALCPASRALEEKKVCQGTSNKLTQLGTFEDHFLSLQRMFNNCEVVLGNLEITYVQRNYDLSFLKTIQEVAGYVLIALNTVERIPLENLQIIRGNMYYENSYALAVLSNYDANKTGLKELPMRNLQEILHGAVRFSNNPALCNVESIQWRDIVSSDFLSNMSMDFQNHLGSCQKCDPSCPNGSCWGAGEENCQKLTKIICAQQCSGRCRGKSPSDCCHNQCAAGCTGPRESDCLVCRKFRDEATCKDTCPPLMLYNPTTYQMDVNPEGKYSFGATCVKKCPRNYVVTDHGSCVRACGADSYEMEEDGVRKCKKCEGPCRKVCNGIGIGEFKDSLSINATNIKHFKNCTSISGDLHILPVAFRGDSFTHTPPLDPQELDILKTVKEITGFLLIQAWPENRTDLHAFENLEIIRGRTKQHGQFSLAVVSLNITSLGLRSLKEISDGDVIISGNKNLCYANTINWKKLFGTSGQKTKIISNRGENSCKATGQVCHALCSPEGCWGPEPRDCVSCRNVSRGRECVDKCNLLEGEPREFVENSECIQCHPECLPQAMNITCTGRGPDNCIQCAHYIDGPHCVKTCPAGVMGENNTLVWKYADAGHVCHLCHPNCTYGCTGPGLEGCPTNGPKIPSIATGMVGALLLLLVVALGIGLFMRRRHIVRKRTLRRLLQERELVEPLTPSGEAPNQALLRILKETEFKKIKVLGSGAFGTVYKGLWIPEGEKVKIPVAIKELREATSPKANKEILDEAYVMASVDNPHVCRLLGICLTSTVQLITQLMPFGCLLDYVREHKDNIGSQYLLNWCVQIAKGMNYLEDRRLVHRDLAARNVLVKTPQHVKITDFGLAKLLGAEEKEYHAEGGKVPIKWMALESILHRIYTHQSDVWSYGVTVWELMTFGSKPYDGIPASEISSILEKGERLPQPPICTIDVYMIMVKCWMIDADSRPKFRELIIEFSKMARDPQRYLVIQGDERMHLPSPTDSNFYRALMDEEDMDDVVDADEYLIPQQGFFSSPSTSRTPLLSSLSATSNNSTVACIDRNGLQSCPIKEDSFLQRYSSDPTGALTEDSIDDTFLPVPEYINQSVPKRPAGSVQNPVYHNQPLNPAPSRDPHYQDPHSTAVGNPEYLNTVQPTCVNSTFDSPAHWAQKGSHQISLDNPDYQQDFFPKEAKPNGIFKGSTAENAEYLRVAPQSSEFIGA

T3 sequence (P00533 25-1210): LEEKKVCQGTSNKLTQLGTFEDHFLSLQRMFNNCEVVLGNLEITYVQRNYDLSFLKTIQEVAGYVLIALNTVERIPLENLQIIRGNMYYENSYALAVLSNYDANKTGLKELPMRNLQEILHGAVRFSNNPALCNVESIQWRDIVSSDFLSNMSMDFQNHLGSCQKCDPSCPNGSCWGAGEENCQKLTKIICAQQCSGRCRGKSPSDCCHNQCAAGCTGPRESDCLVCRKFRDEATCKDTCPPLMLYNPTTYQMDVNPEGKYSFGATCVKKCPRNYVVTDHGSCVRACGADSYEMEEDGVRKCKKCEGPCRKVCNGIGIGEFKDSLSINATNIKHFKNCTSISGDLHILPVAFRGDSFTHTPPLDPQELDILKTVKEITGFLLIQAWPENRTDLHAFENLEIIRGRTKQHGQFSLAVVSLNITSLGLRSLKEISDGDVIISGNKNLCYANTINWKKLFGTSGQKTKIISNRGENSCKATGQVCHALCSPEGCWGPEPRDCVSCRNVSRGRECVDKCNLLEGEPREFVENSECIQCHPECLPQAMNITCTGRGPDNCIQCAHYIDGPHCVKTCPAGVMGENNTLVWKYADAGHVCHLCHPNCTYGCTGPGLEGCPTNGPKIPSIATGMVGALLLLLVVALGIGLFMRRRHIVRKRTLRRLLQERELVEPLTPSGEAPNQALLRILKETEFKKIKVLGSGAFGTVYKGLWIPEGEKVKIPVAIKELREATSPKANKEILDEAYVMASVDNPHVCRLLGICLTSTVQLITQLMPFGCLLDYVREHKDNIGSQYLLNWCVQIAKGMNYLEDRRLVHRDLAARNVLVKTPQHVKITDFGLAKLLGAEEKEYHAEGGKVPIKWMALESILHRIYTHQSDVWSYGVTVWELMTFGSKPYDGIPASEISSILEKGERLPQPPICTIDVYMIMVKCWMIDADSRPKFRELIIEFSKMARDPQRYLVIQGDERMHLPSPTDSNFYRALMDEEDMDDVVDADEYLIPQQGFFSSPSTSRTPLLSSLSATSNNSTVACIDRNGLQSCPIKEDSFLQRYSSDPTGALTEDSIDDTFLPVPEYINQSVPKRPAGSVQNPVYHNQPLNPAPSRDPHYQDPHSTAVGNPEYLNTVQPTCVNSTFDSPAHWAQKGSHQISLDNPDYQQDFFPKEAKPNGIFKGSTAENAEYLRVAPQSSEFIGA
T1 sequence (P00533 25-1210 T790M/L858R): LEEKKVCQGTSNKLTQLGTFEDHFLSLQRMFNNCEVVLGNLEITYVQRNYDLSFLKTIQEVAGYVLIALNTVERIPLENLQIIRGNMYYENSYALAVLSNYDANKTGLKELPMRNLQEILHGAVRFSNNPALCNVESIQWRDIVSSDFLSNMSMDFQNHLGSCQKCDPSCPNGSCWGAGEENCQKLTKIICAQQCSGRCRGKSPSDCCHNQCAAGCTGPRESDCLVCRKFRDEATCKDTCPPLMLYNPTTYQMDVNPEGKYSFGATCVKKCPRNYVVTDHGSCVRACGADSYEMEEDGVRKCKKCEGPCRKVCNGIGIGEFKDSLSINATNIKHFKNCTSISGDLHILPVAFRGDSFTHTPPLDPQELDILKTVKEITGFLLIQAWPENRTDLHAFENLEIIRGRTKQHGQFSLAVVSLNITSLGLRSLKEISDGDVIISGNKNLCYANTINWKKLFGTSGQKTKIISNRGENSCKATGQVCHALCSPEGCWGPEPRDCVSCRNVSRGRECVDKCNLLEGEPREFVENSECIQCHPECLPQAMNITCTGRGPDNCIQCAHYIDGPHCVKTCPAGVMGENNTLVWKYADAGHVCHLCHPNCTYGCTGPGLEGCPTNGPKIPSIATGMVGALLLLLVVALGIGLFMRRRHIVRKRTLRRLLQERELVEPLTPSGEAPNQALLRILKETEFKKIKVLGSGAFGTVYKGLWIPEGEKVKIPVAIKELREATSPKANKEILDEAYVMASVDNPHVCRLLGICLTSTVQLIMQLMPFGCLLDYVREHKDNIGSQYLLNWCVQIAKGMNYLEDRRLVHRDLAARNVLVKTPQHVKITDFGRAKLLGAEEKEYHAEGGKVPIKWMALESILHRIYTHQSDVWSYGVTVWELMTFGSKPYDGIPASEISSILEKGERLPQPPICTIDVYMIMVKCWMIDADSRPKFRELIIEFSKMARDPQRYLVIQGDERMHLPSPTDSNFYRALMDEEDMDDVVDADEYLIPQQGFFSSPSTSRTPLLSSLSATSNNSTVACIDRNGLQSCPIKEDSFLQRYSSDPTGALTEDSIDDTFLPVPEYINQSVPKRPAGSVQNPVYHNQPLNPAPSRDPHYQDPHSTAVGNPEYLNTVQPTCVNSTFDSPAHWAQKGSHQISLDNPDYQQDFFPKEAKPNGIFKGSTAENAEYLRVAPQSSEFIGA
T2 sequence (P00533 25-1210 T790M/C797S/L858R): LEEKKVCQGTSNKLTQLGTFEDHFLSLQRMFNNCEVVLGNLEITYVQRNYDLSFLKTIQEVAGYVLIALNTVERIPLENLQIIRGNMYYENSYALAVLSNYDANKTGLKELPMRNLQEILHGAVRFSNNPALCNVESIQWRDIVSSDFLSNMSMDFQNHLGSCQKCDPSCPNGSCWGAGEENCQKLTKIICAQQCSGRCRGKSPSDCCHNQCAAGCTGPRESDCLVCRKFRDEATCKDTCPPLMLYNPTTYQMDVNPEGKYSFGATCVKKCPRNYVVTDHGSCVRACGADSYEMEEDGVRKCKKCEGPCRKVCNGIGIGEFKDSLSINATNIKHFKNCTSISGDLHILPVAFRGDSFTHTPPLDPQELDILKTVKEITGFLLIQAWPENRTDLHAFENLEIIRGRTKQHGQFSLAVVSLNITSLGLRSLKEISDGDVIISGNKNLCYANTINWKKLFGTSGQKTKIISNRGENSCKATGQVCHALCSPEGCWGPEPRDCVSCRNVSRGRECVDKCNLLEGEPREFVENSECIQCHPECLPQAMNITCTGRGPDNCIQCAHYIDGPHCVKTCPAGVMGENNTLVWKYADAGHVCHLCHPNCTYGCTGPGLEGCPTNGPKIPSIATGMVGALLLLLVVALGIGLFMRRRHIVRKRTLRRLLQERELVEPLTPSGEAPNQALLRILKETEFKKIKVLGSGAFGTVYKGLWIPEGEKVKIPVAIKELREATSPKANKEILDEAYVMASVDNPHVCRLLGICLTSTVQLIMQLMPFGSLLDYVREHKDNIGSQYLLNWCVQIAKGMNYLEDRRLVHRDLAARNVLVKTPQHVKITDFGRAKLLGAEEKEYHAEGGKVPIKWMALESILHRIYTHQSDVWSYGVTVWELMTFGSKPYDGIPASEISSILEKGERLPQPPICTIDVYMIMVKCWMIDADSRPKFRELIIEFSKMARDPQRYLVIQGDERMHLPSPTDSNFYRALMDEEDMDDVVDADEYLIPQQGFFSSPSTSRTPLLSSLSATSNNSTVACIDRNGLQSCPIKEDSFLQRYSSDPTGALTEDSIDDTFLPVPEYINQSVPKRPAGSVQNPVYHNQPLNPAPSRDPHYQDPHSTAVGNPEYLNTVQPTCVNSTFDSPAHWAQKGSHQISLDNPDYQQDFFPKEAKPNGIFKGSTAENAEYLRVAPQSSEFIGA

Structure (SMILES): C=Cc1cc(=O)n(-c2ccc(OC)cc2OC)c2nc(Nc3ccc(N(C)CCN(C)C)cc3)ncc12 [Example 155, 8-(2,4-dimethoxyphenyl)-2-[(4-{[2-(dimethylamino)ethyl](methyl)amino}phenyl)amino]-5-ethenylpyrido[2,3-d]pyrimidin-7-one]
- IC50 [1]: > 3 µM
- IC50 [2]: > 3 µM
- IC50 [3]: > 3 µM
- IC50 [4]: 1 to 10 µM

Structure (SMILES): C=Cc1cc(=O)n(-c2cccc(OC)c2)c2nc(Nc3ccccc3OC)ncc12 [Example 156, 8-(3-Methoxyphenyl)-2-((2-methoxyphenyl)amino)-5-vinylpyrido[2,3-d]pyrimidin-7(8H)-one]
- IC50 [1]: > 3 µM
- IC50 [2]: > 3 µM
- IC50 [3]: > 3 µM
- IC50 [4]: > 10 µM

Structure (SMILES): C=Cc1cc(=O)n(-c2ccc(OC)cc2)c2nc(Nc3ccccc3OC)ncc12 [Example 157, 8-(4-Methoxyphenyl)-2-((2-methoxyphenyl)amino)-5-vinylpyrido[2,3-d]pyrimidin-7(8H)-one]
- IC50 [1]: > 3 µM
- IC50 [2]: > 3 µM
- IC50 [3]: > 3 µM
- IC50 [4]: > 10 µM

Structure (SMILES): C=Cc1c(-c2ccccc2Cl)c(=O)n(C)c2nc(Nc3ccc(N4CCN(C)CC4)cc3OC)ncc12 [Example 170, 6-(2-chlorophenyl)-5-ethenyl-2-{[2-methoxy-4-(4-methylpiperazin-1-yl)phenyl]amino}-8-methylpyrido[2,3-d]pyrimidin-7-one]
- IC50 [1]: > 3 µM
- IC50 [2]: > 3 µM
- IC50 [3]: > 3 µM
- IC50 [4]: > 10 µM

Structure (SMILES): C=Cc1c(-c2ccccc2Cl)c(=O)n(C)c2nc(Nc3ccc(OCCN(C)C)cc3)ncc12 [Example 172, 6-(2-chlorophenyl)-2-({4-[2-(dimethylamino)ethoxy]phenyl}amino)-5-ethenyl-8-methylpyrido[2,3-d]pyrimidin-7-one]
- IC50 [1]: > 3 µM
- IC50 [2]: > 3 µM
- IC50 [3]: > 3 µM
- IC50 [4]: > 10 µM

Structure (SMILES): C#Cc1c(C)c(=O)n(Cc2cnoc2)c2nc(Nc3ccc(N4CCN(C)CC4)cc3)ncc12 [Example 175, 5-Ethynyl-6-methyl-2-{[4-(4-methylpiperazin-1-yl)phenyl]aminol}-8-(1,2-oxazol-4-ylmethyl)pyrido[2,3-d]pyrimidin-7-one]
- IC50 [1]: > 3 µM
- IC50 [2]: > 3 µM
- IC50 [3]: > 3 µM
- IC50 [4]: > 10 µM

Structure (SMILES): C#Cc1c(C)c(=O)n(Cc2ncc[nH]2)c2nc(Nc3ccc(N4CCN(C)CC4)cc3)ncc12 [Example 177, 5-Ethynyl-8-(1H-imidazol-2-ylmethyl)-6-methyl-2-{[4-(4-methylpiperazin-1-yl)phenyl]amino}pyrido[2,3-d]pyrimidin-7-one]
- IC50 [1]: > 3 µM
- IC50 [2]: > 3 µM
- IC50 [3]: > 3 µM
- IC50 [4]: 1 to 10 µM

Structure (SMILES): C#Cc1cc(=O)n(C2CCCC2)c2nc(Nc3cccc(CN4CC(CS(C)(=O)=O)C4)c3)ncc12 [Example 181]
- IC50 [1]: > 3 µM
- IC50 [2]: > 3 µM
- IC50 [3]: > 3 µM
- IC50 [4]: > 10 µM

Structure (SMILES): C#Cc1cc(=O)n(C2CCCC2)c2nc(Nc3cccc(CN4CCC(CS(C)(=O)=O)C4)c3)ncc12 (stereo not shown) [Example 182]
- IC50 [1]: > 3 µM
- IC50 [2]: > 3 µM
- IC50 [3]: > 3 µM
- IC50 [4]: > 10 µM

Structure (SMILES): C#Cc1cc(=O)n(C2CCCC2)c2nc(Nc3cccc(CN4CCC(CS(C)(=O)=O)CC4)c3)ncc12 [Example 183]
- IC50 [1]: > 3 µM
- IC50 [2]: > 3 µM
- IC50 [3]: > 3 µM
- IC50 [4]: > 10 µM

Structure (SMILES): C#Cc1cc(=O)n(C2CCCC2)c2nc(Nc3cccc4c3CN(C)C4)ncc12 [Example 184, 8-Cyclopentyl-5-ethynyl-2-[(2-methvl-1,3-dihydroisoindol-4-yl)amino]pyrido[2,3-d]pyrimidin-7-one]
- IC50 [1]: > 3 µM
- IC50 [2]: > 3 µM
- IC50 [3]: > 3 µM
- IC50 [4]: 1 to 10 µM

Structure (SMILES): C#Cc1cc(=O)n(C2CCCC2)c2nc(Nc3cccc4c3CCN(C)C4)ncc12 [Example 185, 8-Cyclopentyl-5-ethynyl-2-[(2-methyl-3,4-dihydro-1H-isoquinolin-5-yl)amino]pyrido[2,3-d]pyrimidin-7-one]
- IC50 [1]: > 3 µM
- IC50 [2]: > 3 µM
- IC50 [3]: > 3 µM
- IC50 [4]: > 10 µM

Structure (SMILES): C#Cc1cc(=O)n2c3nc(ncc13)Nc1cccc(c1)OCCC2 [Example 186, 1^5-ethynyl-1^7,1^8-dihydro-4-oxa-2-aza-1(2,8)-pyrido[2,3-d]pyrimidina-3(1,3)-benzenacycloheptaphan-1^7-one]
- IC50 [1]: > 3 µM
- IC50 [2]: > 3 µM
- IC50 [3]: > 3 µM
- IC50 [4]: > 10 µM

Structure (SMILES): C#Cc1c(C)c(=O)n2c3nc(ncc13)Nc1cccc(c1)OCCCC2 [Example 191, 1^5-ethynyl-1^6-methyl-1^7,1^8-dihydro-4-oxa-2-aza-1(2,8)-pyrido[2,3-d]pyrimidina-3(1,3)-benzenacyclooctaphan-1^7-one]
- IC50 [1]: > 3 µM
- IC50 [2]: > 3 µM
- IC50 [3]: > 3 µM
- IC50 [4]: 1 to 10 µM

Next, values leading:

- IC50 [1]: > 3 µM
- IC50 [2]: > 3 µM
- IC50 [3]: > 3 µM
- IC50 [4]: 1 to 10 µM
Structure (SMILES): C#Cc1c(C)c(=O)n(C)c2nc(Nc3ccc(N4CCN(C)CC4)cc3)ncc12 [Example 149, 5-ethynyl-6,8-dimethyl-2-{[4-(4-methylpiperazin-1-yl)phenyl]amino}pyrido[2,3-d]pyrimidin-7-one]

- IC50 [1]: > 3 µM
- IC50 [2]: 1 to 3 µM
- IC50 [3]: > 3 µM
- IC50 [4]: 1 to 10 µM
Structure (SMILES): C#Cc1c(-c2cccs2)c(=O)n(C)c2nc(Nc3ccc(N4CCN(C)CC4)cc3)ncc12 [Example 150, 5-ethynyl-8-methyl-2-{[4-(4-methylpiperazin-1-yl)phenyl]amino}-6-(thiophen-2-yl)pyrido[2,3-d]pyrimidin-7-one]

- IC50 [1]: 0.5 to 1 µM
- IC50 [2]: 0.5 to 1 µM
- IC50 [3]: 1 to 3 µM
- IC50 [4]: 1 to 10 µM
Structure (SMILES): C#Cc1c(C)c(=O)n(-c2ccccc2)c2nc(Nc3ccc(N4CCN(C)CC4)cc3)ncc12 [Example 151, 5-Ethynyl-6-methyl-2-{[4-(4-methylpiperazin-1-yl)phenyl]amino}-8-phenylpyrido[2,3-d]pyrimidin-7-one]

- IC50 [1]: 1 to 3 µM
- IC50 [2]: 1 to 3 µM
- IC50 [3]: > 3 µM
- IC50 [4]: < 1 µM
Structure (SMILES): C#Cc1c(C)c(=O)n(Cc2cnco2)c2nc(Nc3ccc(N4CCN(C)CC4)cc3)ncc12 [Example 176, 5-Ethynyl-6-methvl-2-{[4-(4-methylpiperazin-1-yl)phenyl]aminol}-8-(1,3-oxazol-5-ylmethyl)pyrido[2,3-d]pyrimidin-7-one]

- IC50 [1]: 0.5 to 1 µM
- IC50 [2]: 0.5 to 1 µM
- IC50 [3]: > 3 µM
- IC50 [4]: < 1 µM
Structure (SMILES): C#Cc1c(C)c(=O)n(Cc2ccccn2)c2nc(Nc3ccc(N4CCN(C)CC4)cc3)ncc12 [Example 178, 5-Ethynyl-6-methyl-2-{[4-(4-methylpiperazin-1-yl)phenyl]amino}-8-(pyridin-2-ylmethyl)pyrido[2,3-d]pyrimidin-7-one]

- IC50 [1]: 1 to 3 µM
- IC50 [2]: 1 to 3 µM
- IC50 [3]: > 3 µM
- IC50 [4]: 1 to 10 µM
Structure (SMILES): C#Cc1c(C)c(=O)n(Cc2ccncc2)c2nc(Nc3ccc(N4CCN(C)CC4)cc3)ncc12 [Example 179, 5-Ethynyl-6-methyl-2-{[4-(4-methylpiperazin-1-yl)phenyl]amino}-8-(pyridin-4-ylmethyl)pyrido[2,3-d]pyrimidin-7-one]

- IC50 [1]: 1 to 3 µM
- IC50 [2]: 1 to 3 µM
- IC50 [3]: > 3 µM
- IC50 [4]: 1 to 10 µM
Structure (SMILES): C#Cc1c(C)c(=O)n(Cc2cnn(C)c2)c2nc(Nc3ccc(N4CCN(C)CC4)cc3)ncc12 [Example 180, 5-Ethynyl-6-methyl-2-{[4-(4-methylpiperazin-1-yl)phenyl]aminol}-8-[(1-methylpyrazol-4-yl)methyl]pyrido[2,3-d]pyrimidin-7-one]

- IC50 [1]: < 0.5 µM
- IC50 [2]: 0.5 to 1 µM
- IC50 [3]: > 3 µM
- IC50 [4]: 1 to 10 µM
Structure (SMILES): C#Cc1cc(=O)n2c3nc(ncc13)Nc1cccc(c1)OC/C=C\C2 [Example 187, (Z)-1^5-ethynyl-1^7,1^8-dihydro-4-oxa-2-aza-1(2,8)-pyrido[2,3-d]pyrimidina-3(1,3)-benzenacyclooctaphan-6-en-1^7-one]

- IC50 [1]: < 0.5 µM
- IC50 [2]: < 0.5 µM
- IC50 [3]: 0.5 to 1 µM
- IC50 [4]: < 1 µM
Structure (SMILES): C#Cc1cc(=O)n2c3nc(ncc13)Nc1ccc(N3CCN(C)CC3)c(c1)OC/C=C\C2 [Example 188, (Z)-1^5-ethynyl-3^4-(4-methylpiperazin-1-yl)-1^7,1^8-dihydro-4-oxa-2-aza-1(2,8)-pyrido[2,3-d]pyrimidina-3(1,3)-benzenacyclooctaphan-6-en-1^7-one]

- IC50 [1]: < 0.5 µM
- IC50 [2]: < 0.5 µM
- IC50 [3]: 0.5 to 1 µM
- IC50 [4]: < 1 µM
Structure (SMILES): C#Cc1cc(=O)n2c3nc(ncc13)Nc1ccc(N3CCN(C)CC3)c(c1)OCCCC2 [Example 189, 1^5-ethynyl-3^4-(4-methylpiperazin-1-yl)-1^7,1^8-dihydro-4-oxa-2-aza-1(2,8)-pyrido[2,3-d]pyrimidina-3(1,3)-benzenacyclooctaphan-1^7-one]

- IC50 [1]: 1 to 3 µM
- IC50 [2]: 1 to 3 µM
- IC50 [3]: > 3 µM
- IC50 [4]: > 10 µM
Structure (SMILES): C#Cc1c(C)c(=O)n2c3nc(ncc13)Nc1cccc(c1)OC/C=C\C2 [Example 190, (Z)-1^5-ethynyl-1^6-methyl-1^7,1^8-dihydro-4-oxa-2-aza-1(2,8)-pyrido[2,3-d]pyrimidina-3(1,3)-benzenacyclooctaphan-6-en-1^7-one]
